In patent US20100048657A1, “CONTROL OF MALIGNANT CELLS PROLIFERATION THROUGH THE INHIBITION OF CASEIN KINASE 2” (CLEVELAND STATE UNIVERSITY, priority 2006, published 2010):

Legend:
MEG-01 cells = assay: Apoptosis assay by flow cytometry with AnnexinV-FITC and PI; type: cell-based, human; details: for early apoptotic cells (FL1H+, FL3H−) versus control untreated (DMSO): 72 hours; for early apoptotic cells (FL1H+, FL3H−) versus control untreated (DMSO) / total apoptotic cells (late plus early) versus control untreated (DMSO): p<0.01; for cytotoxicity: MEG-01 cells
Description: For induction of typical apoptosis, cells were cultured with 1 μM Staurosporine (Sigma-Aldrich, cat. # S6942) for 6 hours as recommended in the protocol from the provider. Next the Staurosporine treated cells were stained as follows: (1) with PI, (2) with AnnexinV-FITC and (3) both PI and AnnexinV-FITC in order to have the brightest controls for compensation and proper collection of the flow cytometry data. Cell necrosis was induced by heat shock (65° C. for 30 minutes). Controls for necrosis were stained in the same way as for the Staurosporine treated cells.
In order to establish the effect of the treatments on the apoptosis levels, the non-treated cells (as well as the mock control DMSO) were considered as a control, stained with PI and AnnexinV-FITC and the unstained cells, grown for the same length of treatment. The unstained control signal was subtracted by gating from the stained control and the rest of stained samples, to get only the positive stained cells signal. The stained control, both PI and AnnexinV-FITC labeled, was then used as the reference in establishing the level of apoptosis induced by the treatments.
Samples contained three cell populations of different size and shape and data was collected on logarithmic modes. AnnexinV-FITC corresponds to FL1H channel, and PI to FL3H or FL2H channels. When needed, compensation was done to remove any spillover between the channels. In addition, proper gating was done to characterize each cell population. The population of cells high on FSC and SSC, identified as large, non-granulated particles corresponds to MEG-01 cells. This population is involved in the proplatelets formation and terminal phase of megakaryocytopoiesis and in thrombocytopoiesis. MEG-01 gate is the one of interest in estimating the apoptosis level induced by the treatments.
The Apoptosis AnnexinV-FITC and PI kit from BD Biosciences, CA, USA was used. 105-106 cells were stained with 50 μg/ml propidium iodide (PI) and with 0.5 μg/ml FITC-labeled Annexin V using the staining protocol provided by the supplier. Briefly, cells were counted using a Neubauer hemacytometer, then washed and resuspended in the appropriate amount of AnnexinV-binding buffer 1× (provided in the kit), in order to have the most […] in 100 μl. Then it was used further, as the total reaction volume 100 μl (containing 10^6 cells) to which PI and AnnexinV-FITC was added. Incubation was done for 15 minutes in dark at room temperature. Samples were then analyzed immediately by flow cytometry.
With reference to FIGS. 5-9, apoptosis flow cytometry (AnnexinV-FITC corresponding to FL1H and PI corresponding to FL3H) is depicted. Analyzed and graphed values correspond to frequencies of the parent obtained with FlowJo software version 6.2, after quadrant gating. […] In FIG. 5, apoptotic cells, percentages (FL1H+, FL3H−), after 24 hours of treatment with CK2α inhibitors are depicted. Left bar represents Control untreated (DMSO), middle bar represents DMAT 20 μM treatment and right bar represents TBB 50 μM treatment. The MEG-01 cells were treated for a period of 24 hours. […] Left column represents the Control untreated (DMSO), middle bar represents DMAT 20 μM treatment and right bar represents TBB 50 μM treatment. The MEG-01 cells were treated for a period of 72 hours. […] Left bar represents the Control untreated (DMSO), middle bar represents DMAT 20 μM treatment and right bar represents TBB 50 μM treatment. The MEG-01 cells were treated for a period of 96 hours. […] FIG. 8 illustrates control untreated (DMSO) stained for both Annexin V-FITC and PI, after 24 hours.

[1] = test system: fibrinogen receptor expression on MEG-01 cells; assay: Fibrinogen-Alexa Fluor 488 binding to MEG-01 cells; type: cell-based, human; details: 10 μM
Description: RPE conjugated stained cells were collected on FL2H channel and gating on populations was done on FSC and SSC logarithmic modes. The unstained control signal was subtracted from the stained cells signal, in order to measure the staining of the cells without background noise. Similar staining was done for Fibrinogen-Alexa Fluor 488 (300 nM). Cells were collected on FL1H channel and gating on the interest population was done on FSC and SSC logarithmic modes. Again, the unstained control signal was subtracted from the stained cells signal, in order to measure the staining of the cells without background noise.
Regarding FIGS. 16-20, maturation (differentiation) of MEG-01 cells is described. In FIG. 16, RPECD41a (αIIbβ3 expression) staining for DMAT treated cells (gate MEG-01) is depicted, with control untreated unstained—plot A, Control untreated stained (RPE-CD41a)—plot B, DMAT 10 μM—plot D, DMAT 15 μM—plot C, DMAT 20 μM—plot E. For FIG. 17, RPECD41a (αIIbβ3 expression) staining for DMAT, TBB and PMA (gate MEG-01) is shown. Control untreated unstained—plot A, control untreated stained—plot B, 10 μM DMAT—plot C, 25 μM TBB—plot D, 1 nM PMA treatments—plot E. FIG. 18 represents total percentage relative fluorescence for RPE-CD41a immunophenotyping. […]

Row | SMILES | apoptosis versus non-treated control (MEG-01 cells; 50 μM, 24 hours, p<0.05) | early apoptotic cells (FL1H+, FL3H−) versus control untreated (DMSO) (MEG-01 cells; 50 μM) | total apoptotic cells (late plus early) versus control untreated (DMSO) (MEG-01 cells; 50 μM, 96 hours) | cytotoxicity (MEG-01 cells) | apoptosis (MEG-01 cells; 10 μM, 24 hours) | apoptosis versus non-treated control (MEG-01 cells; 20 μM, 24 hours) | early apoptotic cells (FL1H+, FL3H−) versus control untreated (DMSO) (MEG-01 cells; 20 μM) | total apoptotic cells (late plus early) versus control untreated (DMSO) (MEG-01 cells; 20 μM, 96 hours) | apoptosis compared with TBB (MEG-01 cells; DMAT 20 μM versus TBB 50 μM, 96 hours) | fibrinogen-Alexa Fluor 488 binding to MEG-01 cells versus untreated controls [1]
1 | Brc1c(Br)c(Br)c2[nH]nnc2c1Br [TBB, 4,5,6,7-tetrabromobenzotriazole] | significant apoptosis | significant apoptosis after 72 hours | significant apoptosis after 96 hours | without being cytotoxic | – | – | – | – | – | –
2 | CN(C)c1nc2c(Br)c(Br)c(Br)c(Br)c2[nH]1 [DMAT, 2-dimethylamino-4,5,6,7-tetrabromo-1H-benzimidazole] | – | – | – | without being cytotoxic | induced apoptosis | extremely significant apoptosis | significant apoptosis after 72 hours | significant apoptosis after 96 hours | induces more apoptosis at a lower concentration than the less specific inhibitor (TBB) | bind significantly better fibrinogen-Alexa Fluor 488
